Assay: Solubility test of compound in various solvents (20 mg in 10 g solvent, visually judged)
Assay type: physicochemical
Settings: 20 mg sample in 10 g solvent at room temperature (0.2% by mass)
Protocol: <Solubility Test of Compound>
In order to investigate applicability of the compound (e) obtained in the above Example 4 to a wet process, a solubility test of the compound in various solvents was conducted. In addition, a solubility test of anthracene was also conducted as Reference Example 2.
Specifically, 20 mg of a sample was weighed and it was visually judged whether it dissolves in 10 g of a solvent at room temperature (0.2% by mass).
In Table 3, “Yes” represents “soluble” and “No” represents “insoluble”.

SMILES: c1ccc2cc3ccccc3cc2c1 [Anthracene, anthracene]
- Solubility in 1,2-Dichlorobenzene: Yes (“Yes” represents “soluble”)
- Solubility in Chloroform: Yes (“Yes” represents “soluble”)
- Solubility in Cyclohexane: No (“No” represents “insoluble”)
- Solubility in Hexane: No (“No” represents “insoluble”)

SMILES: FC(F)(F)C(F)(F)C(F)(F)C(F)(F)C(F)(F)C(F)(F)c1c2ccccc2c(C(F)(F)C(F)(F)C(F)(F)C(F)(F)C(F)(F)C(F)(F)F)c2ccccc12 [Compound (e), 9,10-bis(perfluorohexyl)anthracene]
- Solubility in 1,2-Dichlorobenzene: Yes (“Yes” represents “soluble”)
- Solubility in Chloroform: Yes (“Yes” represents “soluble”)
- Solubility in Cyclohexane: Yes (“Yes” represents “soluble”)
- Solubility in Hexane: Yes (“Yes” represents “soluble”)
